Experimental data taken from patent US20260184675A1, “CHIRAL ISOMERIC SULFITE COMPOUND AND APPLICATION THEREOF” (Chengdu Hanova BioSciences Co., Ltd, priority 2024, published 2026).

Tests used:
Format in all cases: in vivo
eggs of Thrips = experiment: Effect on hatching of eggs of Thrips, leaf disc method; conditions: 100 ppm; for Hatching rate (%): 5 days after insecticide delivery
In short: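 Egg-bearing Vicia faba leaf discs (diameter 2.0 cm, wetted filter paper beneath) were counted microscopically for baseline eggs. They were then soaked for 10 seconds in water or in test agent at 100 ppm. After moist incubation in lidded dishes, with controlled temperature and humidity and adequate indirect light, hatched larvae were counted five days post-delivery to judge hatching inhibition.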

[1] = test system: eggs of Harmonia axyridis; experiment: Effect on hatching of eggs of Harmonia axyridis, egg card immersion; conditions: 100 ppm; for Number of hatched larvae 4 days after insecticide delivery, Replicate 1 / Number of hatched larvae 4 days after insecticide delivery, Replicate 2 / Number of hatched larvae 4 days after insecticide delivery, Replicate 3: Harmonia axyridis egg cards, immersed 30 seconds; for Hatching rate (%), Replicate 1 / Hatching rate (%), Replicate 2 / Hatching rate (%), Replicate 3: Harmonia axyridis eggs, 4 days after delivery
In short: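 Egg cards (~20 eggs each) dipped 30 s in 100 ppm insecticide, air dried and kept moist at 27° C; 5 cards per treatment, 3 replicates. Hatching assessed 4 days after treatment against pre-treatment egg counts, and control effect calculated by formula.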

[2] = test system: eggs of Tetranychus urticae; experiment: Effect on hatching of eggs of Tetranychus urticae, leaf disc method; conditions: 5 ppm; for Hatching rate (%): 5 days after insecticide delivery
In short: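 This leaf disc test measured inhibition of Tetranychus urticae egg hatching. Eggs laid on Vicia faba discs were counted microscopically, and the discs were soaked for 10 seconds in compound at 5 ppm, with clear water as control. They were incubated under controlled temperature and humidity with strong indirect light, avoiding condensate. Hatched eggs, leaf damage and developmental abnormalities were recorded five days after delivery.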

eggs of Aleyrodidae = experiment: Effect on hatching of eggs of Aleyrodidae, leaf disc method; conditions: 10 ppm; for Hatching rate (%), Replicate 1 / Hatching rate (%), Replicate 2 / Hatching rate (%), Replicate 3 / Number of hatched larvae 5 days after insecticide delivery, Replicate 1 / Number of hatched larvae 5 days after insecticide delivery, Replicate 2 / Number of hatched larvae 5 days after insecticide delivery, Replicate 3: Aleyrodidae eggs; for Hatching rate (%), Replicate 1 / Hatching rate (%), Replicate 2 / Hatching rate (%), Replicate 3: 5 days after delivery; for Number of hatched larvae 5 days after insecticide delivery, Replicate 1 / Number of hatched larvae 5 days after insecticide delivery, Replicate 2 / Number of hatched larvae 5 days after insecticide delivery, Replicate 3: leaf disc
In short: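 Leaf discs carrying Aleyrodidae eggs were first examined microscopically to record a baseline egg count. They were then dipped for 10 seconds in compound solution at 10 ppm or in clear water, taken out, and incubated with humidity maintained. Five days after delivery, the number of hatched larvae was recorded to assess hatching inhibition.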

[3] = Replicate 1, listed as 19-(S, S)
[4] = Replicate 2, listed as 19-(S, S)
[5] = Replicate 3, listed as 19-(S, S)
[6] = Replicate 1, listed as 19′-(R, R)
[7] = Replicate 2, listed as 19′-(R, R)
[8] = Replicate 1, listed as 19′-(S, R)
[9] = Replicate 2, listed as 19′-(S, R)
[10] = Replicate 3, listed as 19′-(S, R)

CCC(COc1ccc(Cl)cc1Cl)OS(=O)OCCF [19-(S,S)]
Hatching rate (%) (eggs of Thrips; [3]): 14.4% | Hatching rate (%) (eggs of Thrips; [4]): 13.89% | Hatching rate (%) (eggs of Thrips; [5]): 11.46% | Number of hatched larvae 5 days after insecticide delivery (eggs of Thrips; [3]): 18 | Number of hatched larvae 5 days after insecticide delivery (eggs of Thrips; [4]): 15 | Number of hatched larvae 5 days after insecticide delivery (eggs of Thrips; [5]): 11 | Number of hatched larvae 4 days after insecticide delivery, Replicate 1 ([1]; listed as 19-(S, S)): 13 | Number of hatched larvae 4 days after insecticide delivery, Replicate 2 ([1]; listed as 19-(S, S)): 15 | Number of hatched larvae 4 days after insecticide delivery, Replicate 3 ([1]; listed as 19-(S, S)): 16 | Hatching rate (%), Replicate 1 ([1]; listed as 19-(S, S)): 13.68% | Hatching rate (%), Replicate 2 ([1]; listed as 19-(S, S)): 14.56% | Hatching rate (%), Replicate 3 ([1]; listed as 19-(S, S)): 15.38% | Hatching rate (%) [2, 3]: 17.48% | Hatching rate (%) [2, 4]: 14.74% | Number of hatched larvae 5 days after insecticide delivery [2, 3]: 18 | Number of hatched larvae 5 days after insecticide delivery [2, 4]: 14 | Hatching rate (%), Replicate 1 (eggs of Aleyrodidae; listed as 19-(S, S)): 12.36% | Hatching rate (%), Replicate 2 (eggs of Aleyrodidae; listed as 19-(S, S)): 12.03% | Hatching rate (%), Replicate 3 (eggs of Aleyrodidae; listed as 19-(S, S)): 12.28% | Number of hatched larvae 5 days after insecticide delivery, Replicate 1 (eggs of Aleyrodidae; listed as 19-(S, S)): 11 | Number of hatched larvae 5 days after insecticide delivery, Replicate 2 (eggs of Aleyrodidae; listed as 19-(S, S)): 16 | Number of hatched larvae 5 days after insecticide delivery, Replicate 3 (eggs of Aleyrodidae; listed as 19-(S, S)): 14

CCC(COS(=O)OCCF)Oc1ccc(Cl)cc1Cl [19′-(R,R)]
inhibitory activity on the hatching of eggs of Thrips (in words) (eggs of Thrips): strong inhibitory activities | Hatching rate (%) (eggs of Thrips; [6]): 0.00% | Hatching rate (%) (eggs of Thrips; [7]): 0.00% | Hatching rate (%) (eggs of Thrips; Replicate 3): 0.00% | Number of hatched larvae 5 days after insecticide delivery (eggs of Thrips; [6]): 0 | Number of hatched larvae 5 days after insecticide delivery (eggs of Thrips; [7]): 0 | Number of hatched larvae 5 days after insecticide delivery (eggs of Thrips; Replicate 3): 0 | inhibitory activity on the hatching of eggs of Harmonia axyridis (in words) [1]: strong inhibitory activities | Number of hatched larvae 4 days after insecticide delivery, Replicate 1 ([1]; listed as 19′-(R, R)): 0 | Number of hatched larvae 4 days after insecticide delivery, Replicate 2 ([1]; listed as 19′-(R, R)): 0 | Number of hatched larvae 4 days after insecticide delivery, Replicate 3 ([1]; listed as 19′-(R, R)): 0 | Hatching rate (%), Replicate 1 ([1]; listed as 19′-(R, R)): 0.00% | Hatching rate (%), Replicate 2 ([1]; listed as 19′-(R, R)): 0.00% | Hatching rate (%), Replicate 3 ([1]; listed as 19′-(R, R)): 0.00% | inhibitory activity on the hatching of eggs of Tetranychus urticae (in words) [2]: strong inhibitory activities | Hatching rate (%) [2, 6]: 0.00% | Hatching rate (%) [2, 7]: 0.00% | Number of hatched larvae 5 days after insecticide delivery [2, 6]: 0 | Number of hatched larvae 5 days after insecticide delivery [2, 7]: 0 | inhibitory activity on the hatching of eggs of Aleyrodidae (in words) (eggs of Aleyrodidae): strong inhibitory activities | Hatching rate (%), Replicate 1 (eggs of Aleyrodidae): 0.00% | Hatching rate (%), Replicate 2 (eggs of Aleyrodidae): 0.00% | Hatching rate (%), Replicate 3 (eggs of Aleyrodidae): 0.00% | Number of hatched larvae 5 days after insecticide delivery, Replicate 1 (eggs of Aleyrodidae): 0 | Number of hatched larvae 5 days after insecticide delivery, Replicate 2 (eggs of Aleyrodidae): 0 | Number of hatched larvae 5 days after insecticide delivery, Replicate 3 (eggs of Aleyrodidae): 0

CC[C@H](COS(=O)OCCF)Oc1ccc(Cl)cc1Cl (stereo partly drawn) [19′-(R,S)]
Hatching rate (%) (eggs of Thrips; Replicate 1): 9.02% | Hatching rate (%) (eggs of Thrips; Replicate 2): 9.18% | Hatching rate (%) (eggs of Thrips; Replicate 3): 8.74% | Number of hatched larvae 5 days after insecticide delivery (eggs of Thrips; Replicate 1): 12 | Number of hatched larvae 5 days after insecticide delivery (eggs of Thrips; Replicate 2): 9 | Number of hatched larvae 5 days after insecticide delivery (eggs of Thrips; Replicate 3): 9 | Number of hatched larvae 4 days after insecticide delivery, Replicate 1 [1]: 11 | Number of hatched larvae 4 days after insecticide delivery, Replicate 2 [1]: 10 | Number of hatched larvae 4 days after insecticide delivery, Replicate 3 [1]: 9 | Hatching rate (%), Replicate 1 [1]: 10.28% | Hatching rate (%), Replicate 2 [1]: 10.53% | Hatching rate (%), Replicate 3 [1]: 9.78% | Hatching rate (%) ([2]; Replicate 1): 12.66% | Hatching rate (%) ([2]; Replicate 2): 13.25% | Number of hatched larvae 5 days after insecticide delivery ([2]; Replicate 1): 10 | Number of hatched larvae 5 days after insecticide delivery ([2]; Replicate 2): 11 | Hatching rate (%), Replicate 1 (eggs of Aleyrodidae): 10.32% | Hatching rate (%), Replicate 2 (eggs of Aleyrodidae): 9.40% | Hatching rate (%), Replicate 3 (eggs of Aleyrodidae): 11.49% | Number of hatched larvae 5 days after insecticide delivery, Replicate 1 (eggs of Aleyrodidae): 13 | Number of hatched larvae 5 days after insecticide delivery, Replicate 2 (eggs of Aleyrodidae): 11 | Number of hatched larvae 5 days after insecticide delivery, Replicate 3 (eggs of Aleyrodidae): 10

CC[C@@H](COS(=O)OCCF)Oc1ccc(Cl)cc1Cl (stereo partly drawn) [19′-(S,R)]
Hatching rate (%) (eggs of Thrips; [8]): 9.40% | Hatching rate (%) (eggs of Thrips; [9]): 10.32% | Hatching rate (%) (eggs of Thrips; [10]): 9.52% | Number of hatched larvae 5 days after insecticide delivery (eggs of Thrips; [8]): 11 | Number of hatched larvae 5 days after insecticide delivery (eggs of Thrips; [9]): 13 | Number of hatched larvae 5 days after insecticide delivery (eggs of Thrips; [10]): 8 | Number of hatched larvae 4 days after insecticide delivery, Replicate 1 ([1]; listed as 19′-(S, R)): 10 | Number of hatched larvae 4 days after insecticide delivery, Replicate 2 ([1]; listed as 19′-(S, R)): 10 | Number of hatched larvae 4 days after insecticide delivery, Replicate 3 ([1]; listed as 19′-(S, R)): 11 | Hatching rate (%), Replicate 1 ([1]; listed as 19′-(S, R)): 10.42% | Hatching rate (%), Replicate 2 ([1]; listed as 19′-(S, R)): 9.35% | Hatching rate (%), Replicate 3 ([1]; listed as 19′-(S, R)): 9.82% | Hatching rate (%) [2, 8]: 10.81% | Hatching rate (%) [2, 9]: 11.49% | Number of hatched larvae 5 days after insecticide delivery [2, 8]: 12 | Number of hatched larvae 5 days after insecticide delivery [2, 9]: 10 | Hatching rate (%), Replicate 1 (eggs of Aleyrodidae; listed as 19′-(S, R)): 10.53% | Hatching rate (%), Replicate 2 (eggs of Aleyrodidae; listed as 19′-(S, R)): 10.24% | Hatching rate (%), Replicate 3 (eggs of Aleyrodidae; listed as 19′-(S, R)): 10.20% | Number of hatched larvae 5 days after insecticide delivery, Replicate 1 (eggs of Aleyrodidae; listed as 19′-(S, R)): 10 | Number of hatched larvae 5 days after insecticide delivery, Replicate 2 (eggs of Aleyrodidae; listed as 19′-(S, R)): 13 | Number of hatched larvae 5 days after insecticide delivery, Replicate 3 (eggs of Aleyrodidae; listed as 19′-(S, R)): 10
